Results on 1 compound are retold here after patent EP3556362A1, “STING INHIBITORS” (ECOLE POLYTECHNIQUE FEDERALE DE LAUSANNE (EPFL), priority 2018, dated 2019).

Assay [1] deals with T1, TBK1 (Homo sapiens, UniProt Q9UHD2).
T1 sequence (Q9UHD2 1-729): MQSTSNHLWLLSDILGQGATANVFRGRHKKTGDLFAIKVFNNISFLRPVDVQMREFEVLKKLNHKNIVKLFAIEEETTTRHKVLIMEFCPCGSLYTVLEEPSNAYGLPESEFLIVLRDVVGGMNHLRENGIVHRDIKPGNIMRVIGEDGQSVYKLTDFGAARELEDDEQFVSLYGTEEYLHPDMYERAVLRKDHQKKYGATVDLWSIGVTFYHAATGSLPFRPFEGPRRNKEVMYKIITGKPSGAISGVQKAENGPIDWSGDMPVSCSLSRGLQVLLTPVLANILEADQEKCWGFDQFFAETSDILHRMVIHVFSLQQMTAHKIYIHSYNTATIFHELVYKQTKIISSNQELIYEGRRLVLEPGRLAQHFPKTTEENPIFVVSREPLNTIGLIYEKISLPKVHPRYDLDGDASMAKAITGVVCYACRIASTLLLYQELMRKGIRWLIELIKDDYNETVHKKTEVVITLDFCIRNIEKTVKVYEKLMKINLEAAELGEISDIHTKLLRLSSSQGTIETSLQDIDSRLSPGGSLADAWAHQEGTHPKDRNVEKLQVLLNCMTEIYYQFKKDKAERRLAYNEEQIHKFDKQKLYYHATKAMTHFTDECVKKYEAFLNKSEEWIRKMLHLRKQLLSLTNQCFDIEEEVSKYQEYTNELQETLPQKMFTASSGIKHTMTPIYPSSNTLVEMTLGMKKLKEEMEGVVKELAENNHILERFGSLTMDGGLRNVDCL
The assay is described as follows: IFN-β luciferase reporter assay in HEK293T cells, TBK1 driven. To be noted: 0.31-2.5µM, 16 h (Figure 2). On the technique in general: A reporter such as luciferase makes a cellular process visible.

Assay [2] addresses T2, RIG-I (Homo sapiens, UniProt O95786).
T2 sequence (O95786 1-925): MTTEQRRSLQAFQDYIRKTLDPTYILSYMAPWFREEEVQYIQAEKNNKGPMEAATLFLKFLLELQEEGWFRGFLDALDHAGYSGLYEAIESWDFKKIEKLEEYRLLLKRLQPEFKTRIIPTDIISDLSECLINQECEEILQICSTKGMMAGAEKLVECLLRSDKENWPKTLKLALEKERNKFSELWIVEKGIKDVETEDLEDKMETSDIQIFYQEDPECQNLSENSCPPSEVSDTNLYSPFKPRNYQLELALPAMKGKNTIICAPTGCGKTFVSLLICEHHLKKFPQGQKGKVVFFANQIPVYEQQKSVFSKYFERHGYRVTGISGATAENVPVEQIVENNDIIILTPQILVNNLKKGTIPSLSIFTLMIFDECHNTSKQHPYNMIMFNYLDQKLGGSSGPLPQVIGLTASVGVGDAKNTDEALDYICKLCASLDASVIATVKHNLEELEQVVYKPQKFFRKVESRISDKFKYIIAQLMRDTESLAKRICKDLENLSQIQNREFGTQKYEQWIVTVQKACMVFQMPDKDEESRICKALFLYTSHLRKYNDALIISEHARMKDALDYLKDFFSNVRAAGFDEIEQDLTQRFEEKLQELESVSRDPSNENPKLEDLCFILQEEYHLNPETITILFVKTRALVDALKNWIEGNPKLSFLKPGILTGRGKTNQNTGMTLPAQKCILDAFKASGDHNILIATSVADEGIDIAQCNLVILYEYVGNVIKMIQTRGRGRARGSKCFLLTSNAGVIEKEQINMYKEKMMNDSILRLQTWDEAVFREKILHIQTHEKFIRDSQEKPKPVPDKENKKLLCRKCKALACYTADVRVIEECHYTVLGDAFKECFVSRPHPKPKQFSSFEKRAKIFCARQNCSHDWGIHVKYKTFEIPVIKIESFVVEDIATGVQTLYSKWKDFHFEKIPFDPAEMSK
Kind of assay: IFN-β luciferase reporter assay in HEK293T cells, RIG-I driven (counter-screen and validation).

As to `CCc1ccc(NC(=O)Nc2c[nH]c3ccccc23)cc1` [F2740-0151, 1-(4-ethylphenyl)-3-(1H-indol-3-yl)urea], the “TBK1-mediated type I IFN induction” value in assay [1] was “failed to suppress”. Also, the “RIG-I-mediated type I IFN induction” value in assay [2] (0.31-2.5µM, 16 h (Figure 2)) is given as “failed to suppress”. Besides, the “RIG-I driven activation of the IFN-β reporter” value in assay [2] (counter-screen of hits from the primary screen) is recorded as “but not RIG-I-dependent type I IFN induction”.
